Several values for one entry are separate records, joined by “and”; a condition that tells them apart may be missing. Equal values may be shown once. Toxic doses and inconclusive results are not listed. Rule for the calls: active = survival T/C of 150% or more; inactive = T/C below 125% in these data.
System: P388 leukemia ip, CD2F1 mice, survival T/C
Assay: NCI In Vivo Anticancer Drug Screen. Data for tumor model P388 Leukemia (intraperitoneal) in CD2F1 (CDF1) mice
Settings: endpoint: median survival time, higher = longer survival
Outline: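 Mice carrying the transplanted tumor received test compound or vehicle. Survival was recorded in each group, and the value is the treated-group measurement divided by that of the vehicle-treated control group.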

[1] = dose: 50.0 mg/kg/injection, schedule: Q01DX009 (ip), vehicle: saline
[2] = dose: 200.0 mg/kg/injection, schedule: Q01DX009 (ip), vehicle: saline
[3] = dose: 100.0 mg/kg/injection, schedule: Q04DX003 (ip), vehicle: saline with Tween-80
[4] = dose: 60.0 mg/kg/injection, schedule: Q01DX005 (ip), vehicle: saline with Tween-80
[5] = dose: 120.0 mg/kg/injection, schedule: Q01DX005 (ip), vehicle: saline with Tween-80
[6] = dose: 240.0 mg/kg/injection, schedule: Q01DX005 (ip), vehicle: saline with Tween-80
[7] = dose: 50.0 mg/kg/injection, schedule: Q01DX005 (ip), vehicle: Klucel (hydroxypropylcellulose) (HPC)
[8] = dose: 100.0 mg/kg/injection, schedule: Q01DX005 (ip), vehicle: Klucel (hydroxypropylcellulose) (HPC)
[9] = dose: 12.5 mg/kg/injection, schedule: Q01DX009 (ip), vehicle: saline
[10] = dose: 25.0 mg/kg/injection, schedule: Q01DX009 (ip), vehicle: saline
[11] = dose: 12.5 mg/kg/injection, schedule: Q01DX009 (ip), vehicle: saline with Tween-80
[12] = dose: 25.0 mg/kg/injection, schedule: Q01DX009 (ip), vehicle: saline with Tween-80
[13] = dose: 50.0 mg/kg/injection, schedule: Q01DX009 (ip), vehicle: saline with Tween-80
[14] = dose: 100.0 mg/kg/injection, schedule: Q01DX009 (ip), vehicle: saline with Tween-80
[15] = dose: 6.25 mg/kg/injection, schedule: Q01DX009 (ip), vehicle: saline with Tween-80
[16] = dose: 60.0 mg/kg/injection, schedule: Q01DX005 (ip), vehicle: Klucel (hydroxypropylcellulose) (HPC)
[17] = dose: 120.0 mg/kg/injection, schedule: Q01DX005 (ip), vehicle: Klucel (hydroxypropylcellulose) (HPC)
[18] = dose: 200.0 mg/kg/injection, schedule: Q01DX009 (ip), vehicle: saline with Tween-80
[19] = dose: 400.0 mg/kg/injection, schedule: Q01DX009 (ip), vehicle: saline with Tween-80

Measured: T/C

OC1(c2ccccc2)C2CC1C2 (configuration not stated)
inactive: dose: 100.0 mg/kg/injection, schedule: Q04DX002 (ip), vehicle: saline 104 % of control | dose: 200.0 mg/kg/injection, schedule: Q04DX002 (ip), vehicle: saline 101 % of control | dose: 400.0 mg/kg/injection, schedule: Q04DX002 (ip), vehicle: saline 102 % of control

NC(=O)C1CNCC(C(N)=O)C1 (configuration not stated)
inactive: [1] 100 % of control and 98 % of control | dose: 100.0 mg/kg/injection, schedule: Q01DX009 (ip), vehicle: saline 98 % of control | [2] 99 % of control

CN(C)[C@@H]1C(=O)C(C(=O)NCNCCCC(=O)O)=C(O)[C@@]2(O)C(=O)C3=C(O)c4c(O)cccc4[C@@](C)(O)[C@H]3C[C@@H]12
inactive: [3] 104 % of control | dose: 200.0 mg/kg/injection, schedule: Q04DX003 (ip), vehicle: saline with Tween-80 100 % of control | dose: 400.0 mg/kg/injection, schedule: Q04DX003 (ip), vehicle: saline with Tween-80 95 % of control

CCCCCCCC(=O)OOC(C)(C)C
inactive: [4] 105 % of control | [5] 105 % of control | [6] 108 % of control

CCOC(=O)Nc1nc2ccccc2n1CN1CCOCC1
inactive: dose: 25.0 mg/kg/injection, schedule: Q01DX005 (ip), vehicle: Klucel (hydroxypropylcellulose) (HPC) 106 % of control | [7] 106 % of control | [8] 105 % of control | dose: 200.0 mg/kg/injection, schedule: Q01DX005 (ip), vehicle: Klucel (hydroxypropylcellulose) (HPC) 115 % of control

CCCCCCCCCCCCCCCCS(=O)(=O)N/N=c1\cc(-c2ccccc2Cl)c2ccccc2n1C
inactive: [9] 92 % of control | [10] 90 % of control | [1] 89 % of control and 90 % of control | [2] 89 % of control

CC(=O)O[C@@H]1C[C@H]2C(C)(C)C(=O)C=C[C@]2(C)[C@H]2CC[C@]3(C)C(=CC(=O)O[C@H]3c3ccoc3)[C@@]21C
inactive: dose: 2.5 mg/kg/injection, schedule: Q01DX009 (ip), vehicle: Klucel (hydroxypropylcellulose) (HPC) 103 % of control | dose: 5.0 mg/kg/injection, schedule: Q01DX009 (ip), vehicle: Klucel (hydroxypropylcellulose) (HPC) 100 % of control | dose: 10.0 mg/kg/injection, schedule: Q01DX009 (ip), vehicle: Klucel (hydroxypropylcellulose) (HPC) 103 % of control and 97 % of control | dose: 20.0 mg/kg/injection, schedule: Q01DX009 (ip), vehicle: Klucel (hydroxypropylcellulose) (HPC) 95 % of control | dose: 40.0 mg/kg/injection, schedule: Q01DX009 (ip), vehicle: Klucel (hydroxypropylcellulose) (HPC) 103 % of control

O=C(CCCSCCCl)Nc1c([N+](=O)[O-])cc([N+](=O)[O-])cc1S(=O)(=O)O
inactive: dose: 3.13 mg/kg/injection, schedule: Q04DX003 (ip), vehicle: DMSO 110 % of control | dose: 6.25 mg/kg/injection, schedule: Q04DX003 (ip), vehicle: DMSO 111 % of control | dose: 50.0 mg/kg/injection, schedule: Q04DX003 (ip), vehicle: DMSO 118 % of control | dose: 100.0 mg/kg/injection, schedule: Q04DX003 (ip), vehicle: olive oil, sesame oil, peanut oil 120 % of control | dose: 150.0 mg/kg/injection, schedule: Q04DX003 (ip), vehicle: DMSO 114 % of control

CCC(C(=O)NNC(=O)c1cc(OC)c(OC)c(OC)c1)c1ccccc1 (configuration not stated)
inactive: [11] 105 % of control | [12] 97 % of control | [13] 98 % of control | [14] 98 % of control

O=[N+]([O-])c1ccc(C=C2C(Cl)=C(Cl)C(Cl)=C2Cl)cc1
inactive: [15] 91 % of control | [11] 100 % of control

O=c1c2ccccc2nc(-c2ccccc2)n1-c1cc(C(F)(F)F)cc(C(F)(F)F)c1
inactive: [15] 99 % of control | [11] 90 % of control

NC(=S)N/N=C/c1cc([N+](=O)[O-])ccc1Cl
inactive: dose: 50.0 mg/kg/injection, schedule: Q01DX009 (ip), vehicle: suspension in saline 94 % of control | dose: 100.0 mg/kg/injection, schedule: Q01DX009 (ip), vehicle: suspension in saline 92 % of control | dose: 200.0 mg/kg/injection, schedule: Q01DX009 (ip), vehicle: suspension in saline 94 % of control

COC(=O)c1nc(N)nc(C(=O)OC)c1C(=O)c1cccnc1
inactive: [16] 95 % of control | [17] 93 % of control

CN(CC(=O)O)C(=S)c1ccccc1
inactive: dose: 100.0 mg/kg/injection, schedule: Q01DX001 (ip), vehicle: saline with Tween-80 95 % of control | dose: 200.0 mg/kg/injection, schedule: Q01DX001 (ip), vehicle: saline with Tween-80 95 % of control | dose: 400.0 mg/kg/injection, schedule: Q01DX001 (ip), vehicle: saline with Tween-80 95 % of control

COc1ccc(C2OCOCC2C)cc1 (configuration not stated)
inactive: [12] 103 % of control | [13] 100 % of control | [14] 103 % of control | [18] 101 % of control | [19] 95 % of control

CCC(SC)C(=O)N(C)c1ccccc1 (configuration not stated)
inactive: dose: 6.25 mg/kg/injection, schedule: Q01DX009 (ip), vehicle: saline 104 % of control | [9] 107 % of control | [12] 90 % of control | [10] 114 % of control | [14] 109 % of control

CCOC(=O)CCC(NC(=O)c1ccc(NS(=O)(=O)c2ccc(C)cc2)cc1)C(=O)OCC (configuration not stated)
inactive: dose: 3.13 mg/kg/injection, schedule: Q01DX009 (ip), vehicle: saline with Tween-80 93 % of control | [15] 93 % of control | [11] 86 % of control | [13] 110 % of control | [14] 100 % of control | [18] 99 % of control | [19] 99 % of control

c1ccc2c(c1)NC1=C(CSCC1)c1nncn1-2
inactive: dose: 100.0 mg/kg/injection, schedule: Q05DX002 (ip), vehicle: Klucel (hydroxypropylcellulose) (HPC) 104 % of control | dose: 200.0 mg/kg/injection, schedule: Q05DX002 (ip), vehicle: Klucel (hydroxypropylcellulose) (HPC) 100 % of control | dose: 400.0 mg/kg/injection, schedule: Q05DX002 (ip), vehicle: Klucel (hydroxypropylcellulose) (HPC) 109 % of control

C=CC(C)(C)c1c(OC)cc(-c2ccccc2)oc1=O
inactive: dose: 8.0 mg/kg/injection, schedule: Q01DX005 (ip), vehicle: Klucel + Tween-80 103 % of control | dose: 16.0 mg/kg/injection, schedule: Q01DX005 (ip), vehicle: Klucel + Tween-80 103 % of control | dose: 32.0 mg/kg/injection, schedule: Q01DX005 (ip), vehicle: Klucel + Tween-80 109 % of control | dose: 64.0 mg/kg/injection, schedule: Q01DX005 (ip), vehicle: Klucel + Tween-80 107 % of control

CNC(C)(C(=O)O)C(=O)Nc1ccccc1 (configuration not stated)
inactive: dose: 100.0 mg/kg/injection, schedule: Q01DX001 (ip), vehicle: saline 112 % of control | dose: 200.0 mg/kg/injection, schedule: Q01DX001 (ip), vehicle: saline 123 % of control

Cc1cccnc1OCC(=O)O
inactive: [16] 100 % of control and 93 % of control | [17] 103 % of control and 90 % of control | dose: 240.0 mg/kg/injection, schedule: Q01DX005 (ip), vehicle: Klucel (hydroxypropylcellulose) (HPC) 100 % of control and 92 % of control

CC1SC2(C(=O)Nc3ccccc32)N(c2ccc(Cl)cc2)C1=O (configuration not stated)
inactive: [4] 101 % of control | [5] 103 % of control | [6] 96 % of control

CN(C)C(=N)N(C)C
inactive: [12] 100 % of control | [13] 100 % of control | [14] 95 % of control

Oc1ccccc1C=NCCN=Cc1ccccc1O
inactive: [13] 99 % of control | [14] 99 % of control | [18] 101 % of control | [19] 105 % of control

N#C[S-].N#C[S-].[Au+3].[Au+3].[CH3-].[CH3-].[CH3-].[CH3-]
inactive: dose: 50.0 mg/kg/injection, schedule: Q04DX003 (ip), vehicle: saline with Tween-80 100 % of control | [3] 120 % of control

C=C(CC(=O)Nc1nc(C)c(C(=O)OC)s1)C(=O)O
inactive: [11] 107 % of control | [12] 100 % of control | [13] 105 % of control | [1] 99 % of control | [2] 96 % of control

COC(=O)C1C2CC3c4[nH]c5cc(OC)ccc5c4CCN3CC2CC(O)C1OC (configuration not stated)
inactive: [7] 97 % of control | [8] 97 % of control

CN(CCO)C1CC(C)(C)N(O)C(C)(C)C1
inactive: dose: 60.0 mg/kg/injection, schedule: Q01DX005 (ip), vehicle: saline 96 % of control | dose: 120.0 mg/kg/injection, schedule: Q01DX005 (ip), vehicle: saline 100 % of control | dose: 240.0 mg/kg/injection, schedule: Q01DX005 (ip), vehicle: saline 100 % of control

From PubChem BioAssay AID330 (DTP/NCI, 2004)
